In patent US7763596B2, “Selective glucocorticoid receptor agonists” (The University of Manchester, priority 2000, dated 2010):

Columns and labels:
Assay type in all cases: cell-based
[1] = biological target: T1, GR ligand binding domain / SRC-1 (Homo sapiens, UniProt P04150); assay: SRC-1 association assay by mammalian two-hybrid analysis; conditions: 100 nM
T1 construct: expressed in transfected cells
T1 sequence (P04150 524-758 limits assumed): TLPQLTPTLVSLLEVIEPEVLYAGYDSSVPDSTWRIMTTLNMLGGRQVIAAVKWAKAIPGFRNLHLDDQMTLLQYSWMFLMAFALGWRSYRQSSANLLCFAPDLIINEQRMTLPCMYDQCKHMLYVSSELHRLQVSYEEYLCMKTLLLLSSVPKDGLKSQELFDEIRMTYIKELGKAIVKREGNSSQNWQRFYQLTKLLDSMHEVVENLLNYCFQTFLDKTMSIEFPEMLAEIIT
Text: SRC-1 is an important co-activator of GR action that associates with the GR in a ligand dependant manner. The ability of SRC-1 to associate with the GR in this manner can be used as a measure of potency of ligand mediated transactivation. To perform this assay plasmids that generated VP16-GR ligand binding domain (LBD) and GAL4-SRC-1 fusion proteins and a GAL4 binding luciferase reporter gene construct were transfected into in a cell line lacking GR and deficient in endogenous SRC-1. The GAL4-SRC-1 fusion protein could bind to specific sites upstream of the luciferase reporter gene construct. If the SRC-1 fusion protein associated with the ligand bound VP16-GRLBD fusion protein then the VP-16 activation domain augmented the luciferase gene expression.

[2] = biological target: T2, progesterone receptor (PRB) (Homo sapiens, UniProt P06401); assay: Progestogen activity assay using progesterone receptor transactivation; conditions: 100 nM, AH3-luc reporter, COS7
T2 construct: expressed in transfected cells; host or cells: COS 7
T2 sequence (P06401 1-933): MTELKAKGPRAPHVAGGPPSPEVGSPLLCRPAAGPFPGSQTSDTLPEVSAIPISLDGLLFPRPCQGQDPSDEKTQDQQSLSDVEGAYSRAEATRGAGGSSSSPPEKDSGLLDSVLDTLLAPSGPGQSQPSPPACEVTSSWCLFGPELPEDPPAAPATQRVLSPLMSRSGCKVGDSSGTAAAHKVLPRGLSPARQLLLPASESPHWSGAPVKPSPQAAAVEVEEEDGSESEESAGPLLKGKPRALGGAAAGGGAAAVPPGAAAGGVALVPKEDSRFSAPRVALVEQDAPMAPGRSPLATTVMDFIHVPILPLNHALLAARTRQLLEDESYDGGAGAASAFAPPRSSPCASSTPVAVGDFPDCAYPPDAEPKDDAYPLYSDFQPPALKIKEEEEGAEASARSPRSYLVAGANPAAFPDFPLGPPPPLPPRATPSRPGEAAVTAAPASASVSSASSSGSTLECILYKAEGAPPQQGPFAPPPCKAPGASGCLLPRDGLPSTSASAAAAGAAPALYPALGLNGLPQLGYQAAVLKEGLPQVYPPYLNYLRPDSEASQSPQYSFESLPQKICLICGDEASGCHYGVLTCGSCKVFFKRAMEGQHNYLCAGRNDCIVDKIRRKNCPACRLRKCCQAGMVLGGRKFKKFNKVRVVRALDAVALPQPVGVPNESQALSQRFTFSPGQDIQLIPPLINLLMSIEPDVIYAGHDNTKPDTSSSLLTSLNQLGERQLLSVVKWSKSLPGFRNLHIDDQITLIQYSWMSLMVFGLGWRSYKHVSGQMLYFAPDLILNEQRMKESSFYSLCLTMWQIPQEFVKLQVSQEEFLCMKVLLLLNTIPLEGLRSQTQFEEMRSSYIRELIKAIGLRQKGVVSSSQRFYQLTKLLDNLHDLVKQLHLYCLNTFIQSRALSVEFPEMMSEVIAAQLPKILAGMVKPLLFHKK
Text: As the GR LBD has strong homology with the PR LBD there is a chance that any of the tested steroids of FIGS. 1 and 2A that activate one of these receptors may also activate the other. The presence of illegitimate progestogen activity associated with the steroids of FIGS. 1 and 2A was examined using a transactivation assay with the PR instead of the GR.
The PR was artificially expressed in a cell line lacking endogenous PR and a GRE “driving” a luciferase reporter gene was used to measure ligand dependent activation.
COS7 cells were transfected with 1 μg pSEO-PRB and 3 μg AH3-Luc per 10 cm tissue culture dish. The cells were plated out in to 24 well plates after transfection and the steroids of FIGS. 1 and 2A were added immediately to generate a final concentration of 100 nM. After 18 hour incubation the cells were lysed and a luciferase assay was performed.

[3] = biological target: T3, glucocorticoid receptor (Homo sapiens, UniProt P04150); assay: Transactivation assay using artificially expressed glucocorticoid receptor in the COS 7 monkey kidney cell line (GRE luciferase); set-up: expressed in transfected cells; host or cells: COS 7 (African green monkey kidney, deficient in endogenous GR); conditions: 1, 10, 10 and 500 nM; FIG. 5
T3 sequence (P04150 1-777): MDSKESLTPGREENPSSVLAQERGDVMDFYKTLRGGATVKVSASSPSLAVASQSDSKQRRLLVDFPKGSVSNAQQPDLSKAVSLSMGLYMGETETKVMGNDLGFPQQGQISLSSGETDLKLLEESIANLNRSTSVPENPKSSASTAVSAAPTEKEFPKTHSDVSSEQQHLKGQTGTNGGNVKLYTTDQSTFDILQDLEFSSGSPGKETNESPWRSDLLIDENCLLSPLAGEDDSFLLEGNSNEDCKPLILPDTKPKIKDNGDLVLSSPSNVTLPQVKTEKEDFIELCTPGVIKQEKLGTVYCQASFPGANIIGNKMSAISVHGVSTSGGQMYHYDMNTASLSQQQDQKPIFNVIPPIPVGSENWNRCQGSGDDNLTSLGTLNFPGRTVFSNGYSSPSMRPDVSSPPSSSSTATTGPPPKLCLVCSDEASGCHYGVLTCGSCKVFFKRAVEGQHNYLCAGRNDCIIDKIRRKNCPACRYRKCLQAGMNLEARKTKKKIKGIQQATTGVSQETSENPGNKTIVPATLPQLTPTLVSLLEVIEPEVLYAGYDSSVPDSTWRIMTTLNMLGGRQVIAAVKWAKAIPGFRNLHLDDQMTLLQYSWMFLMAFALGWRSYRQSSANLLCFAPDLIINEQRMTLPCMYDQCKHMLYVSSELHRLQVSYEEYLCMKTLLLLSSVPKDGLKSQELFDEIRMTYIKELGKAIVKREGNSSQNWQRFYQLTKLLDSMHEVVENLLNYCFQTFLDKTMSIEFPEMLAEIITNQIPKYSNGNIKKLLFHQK
Experimental: (§1) All transfections were performed using lipofectamine plus (Gibco BRL), according to the manufacturers' instructions, as previously described^1. Briefly, all cells were seeded at 5×10^5 per 10 cm tissue culture plate 18 hours before transfection, the next day the relevant plasmids were mixed with serum free medium and “Plus” reagent (Gibco BRL) and incubated for 15 mins, lipofectamine reagent was added and the mix was incubated for a further 15 mins, this mix was added to the cells on serum free medium in the 10 cm tissue culture plates and left for 3 hours, the cells were then trypsinised and divided into 24 well plates, the cells were left to recover overnight and were treated with steroid for 16 hours before harvest. All experiments were performed from one transfection in triplicate and on separate occasions with similar results.
(§2) The firefly luciferase gene catalyses the production of light from the substrate luciferin. When plasmid constructs containing this gene are transfected into cell lines the activity of the gene can be assessed by the intensity of the luminesence. The luciferase assay yields luminescence through an ATP-dependent oxidation of luciferin the amount of light produced can be measured by a luminometer and is a measure of gene activity (Davis, 1996). Light intensity was measured in a Luminometer (LB 9501, Berthold). The light intensity should be proportional to luciferase concentration in the range of 10^−16M (10 μg/L) to 10^−8M (1 mg/L). To measure the luminescence of the treated cells 150 μl of 1× reporter lysis buffer (RLB: 25 mM Tris phosphate pH7.8, 10 mM MgCl2, 15% Glycerol, 1% Triton, 1 mM EDTA) was added to the 24 well plates to lyse the cells and incubated at room temperature for 30 mins whilst being shaken. Then 100 μl of the room temperature cell extract were mixed with 100 μl of room temperature Luciferase Assay Reagent (LAR: 1 mM ATP, 0.3 mM D-Luciferin, 66% RLB). This reaction was mixed in a luminometer (LB 9501, Berthold) and the light produced was measured for a period of 5 seconds.
In this assay the GR was artificially expressed in a cell line lacking endogenous GR and a glucocorticoid response element (GRE) “driving” a luciferase reporter gene was used to measure ligand dependent activation.
COS7 cells were transfected with 1 μg pcDNA3-GR and 3 μg AH3-Luc per 10 cm tissue culture dish. The cells were plated out in to 24 well plates after transfection and the steroids were added immediately. After 18 hour incubation the cells were lysed and a luciferase assay was performed.

[4] = biological target: T3, glucocorticoid receptor; assay: Transrepression assay using artificially expressed glucocorticoid receptor and P65 in the COS 7 cell line (NRE luciferase); set-up: expressed in transfected cells; host or cells: COS 7 (African green monkey kidney, deficient in endogenous GR); conditions: 1, 10 and 100 nM
Experimental: as §1, §2
To perform this assay the GR and p65 were artificially expressed in a cell line lacking GR and deficient in endogenous P65. The ability of P65 to activate an NFkB response element (NRE) “driving” a luciferase reporter gene could then be repressed by GR in a ligand dependent manner and, therefore, used to measure transrepression.
COS7 cells were transfected with 1 μg pcDNA3-GR and 3 μg NRE-Luc and 200 ng p65 per 10 cm tissue culture dish. The cells were plated out in to 24 well plates after transfection and left for 18 hours to recover before the steroids of FIGS. 1 and 2A were added. After another 18 hour incubation the cells were lysed and a luciferase assay was performed.

[5] = biological target: T3, glucocorticoid receptor; assay: Type II antagonist activity assay: competition of dexamethasone transactivation; set-up: expressed in transfected cells; host or cells: COS 7 (African green monkey kidney, deficient in endogenous GR); conditions: 1, 10, 100 nM; 1 nM dexamethasone
Experimental: A type II antagonist should be able to compete agonist activity. As an antagonist has no ability to transactivate, competition can be measured by inhibition of an agonist in a transactivation assay.
As with the standard transactivation assay previously described, the GR was artificially expressed in a cell line lacking endogenous GR and a GRE “driving” a luciferase reporter gene was used to measure ligand dependent activation. COS7 cells were transfected with 1 μg pcDNA3-GR and 3 μg AH3-Luc per 10 cm tissue culture dish. The cells were plated out in to 24 well plates after transfection and the steroids were added immediately. […] Certain steroids from FIG. 2A were added at the same concentration to all sample wells. After 18 hour incubation the cells were lysed and a luciferase assay was performed.

Row | Compound | PRB reporter gene activation [2] | further results
1 | CC1CC2C3CCC4=CC(=O)C=CC4(C)C3(F)C(O)CC2(C)C1(O)C(=O)NCc1ccccc1 (stereo not shown) [Compound K] | slightly increased reporter gene activation compared to that of dexamethasone | SRC-1 recruitment at the highest concentration tested [1]: significant response
2 | CNC(=O)C1(O)C(C)CC2C3CCC4=CC(=O)C=CC4(C)C3(F)C(O)CC21C (stereo not shown) [Compound M] | slightly increased reporter gene activation compared to that of dexamethasone | –
3 | CC1CC2C3CCC4=CC(=O)C=CC4(C)C3(F)C(O)CC2(C)C1(O)C(=O)COC(=O)Nc1ccccc1 (stereo not shown) [Compound N] | slightly increased reporter gene activation compared to that of dexamethasone | –
4 | CC1CC2C3CCC4=CC(=O)C=CC4(C)C3(F)C(O)CC2(C)C1(O)C(=O)COC(=O)Nc1ccc(F)cc1 (stereo not shown) [Compound S] | slightly increased reporter gene activation compared to that of dexamethasone | SRC-1 recruitment at the highest concentration tested [1]: significant response
5 | CCCN(CCC)C(=O)C1(O)C(C)CC2C3CCC4=CC(=O)C=CC4(C)C3(F)C(O)CC21C (stereo not shown) [P] | – | transactivation potential (luminescence) compared to dexamethasone, repeat experiment [3]: “right shifted response” and a reduced maximum compared to dexamethasone; repression of P65 stimulation of an NFkB response element compared with dexamethasone [4]: no effect at 1 and 10 nM with only a negligible repression at 100 nM
6 | CC#C[C@]1(O)CC[C@H]2[C@@H]3CCC4=CC(=O)CCC4=C3[C@@H](c3ccc(N(C)C)cc3)C[C@@]21C [RU486, reference compound] | – | maximal repression of transactivation [5]: ~50%
7 | CC(=O)[C@H]1CC[C@H]2[C@@H]3CCC4=CC(=O)CC[C@]4(C)[C@H]3CC[C@]12C [progesterone, reference compound] | strong induction of the reporter gene | –
